Laboratory results reported in ChEMBL document CHEMBL2021804, “Synthesis and evaluation of piperidine urea derivatives as efficacious 11β-hydroxysteroid dehydrogenase type 1 inhibitors in diabetic ob/ob mice” (Bioorg Med Chem Lett, 2012).
One block for each compound: values may come before it.

Tests used:
[1] = target: 11-beta-hydroxysteroid dehydrogenase 1 (Mus musculus, UniProt P50172); experiment: Inhibition of mouse 11beta-HSD1 expressed in HEK293 cells assessed as [3H]cortisol production after 60 mins by SPA; assay type: cell-based
Sequence of 11-beta-hydroxysteroid dehydrogenase 1 (Mus musculus, UniProt P50172) (P50172 whole entry): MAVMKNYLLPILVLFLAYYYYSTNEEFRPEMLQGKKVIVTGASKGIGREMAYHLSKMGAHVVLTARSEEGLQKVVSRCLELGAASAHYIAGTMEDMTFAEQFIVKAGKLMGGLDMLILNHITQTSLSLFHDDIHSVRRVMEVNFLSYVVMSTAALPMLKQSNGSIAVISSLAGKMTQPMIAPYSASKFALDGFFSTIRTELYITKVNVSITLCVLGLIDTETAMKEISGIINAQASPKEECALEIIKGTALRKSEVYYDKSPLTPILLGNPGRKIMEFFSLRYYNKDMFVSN

[2] = test system: HEK293; experiment: Selectivity ratio of IC50 for human 11beta-HSD1 expressed in HEK293 cells to IC50 for mouse 11beta-HSD1 expressed in HEK293 cells; assay type: cell-based
[3] = target: 11-beta-hydroxysteroid dehydrogenase 1 (Homo sapiens, UniProt P28845); experiment: Inhibition of human 11beta-HSD1 expressed in HEK293 cells assessed as [3H]cortisol production after 60 mins by SPA; assay type: cell-based
Sequence of 11-beta-hydroxysteroid dehydrogenase 1 (Homo sapiens, UniProt P28845) (P28845 whole entry): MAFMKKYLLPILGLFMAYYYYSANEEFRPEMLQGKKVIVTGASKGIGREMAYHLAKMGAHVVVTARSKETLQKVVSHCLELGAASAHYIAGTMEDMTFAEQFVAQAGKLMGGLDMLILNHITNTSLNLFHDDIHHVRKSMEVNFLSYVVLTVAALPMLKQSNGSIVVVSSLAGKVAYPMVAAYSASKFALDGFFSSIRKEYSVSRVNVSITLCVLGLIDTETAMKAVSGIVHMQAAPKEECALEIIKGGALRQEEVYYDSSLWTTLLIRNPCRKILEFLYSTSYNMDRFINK

[4] = Mean residence time in po dosed Sprague-Dawley rat; assay type: ADME, organism-based; settings: in vivo
[5] = AUC (0 to infinity) in po dosed Sprague-Dawley rat; assay type: ADME, organism-based; set-up: route oral, time infinity; settings: plasma
[6] = Tmax in po dosed Sprague-Dawley rat; assay type: ADME, organism-based; settings: in vivo
[7] = AUC (0 to t) in po dosed Sprague-Dawley rat; assay type: ADME, organism-based; settings: plasma
[8] = Half life in po dosed Sprague-Dawley rat; assay type: ADME, organism-based; settings: in vivo
[9] = Cmax in po dosed Sprague-Dawley rat; assay type: ADME, organism-based; set-up: route oral; settings: in vivo
[10] = target: T1, 11-beta-hydroxysteroid dehydrogenase type 2 (Mus musculus, UniProt P51661); experiment: Inhibition of mouse 11beta-HSD2 expressed in HEK293 cells assessed as [3H]cortisol production after 60 mins by SPA; assay type: cell-based
T1 sequence (P51661 whole entry): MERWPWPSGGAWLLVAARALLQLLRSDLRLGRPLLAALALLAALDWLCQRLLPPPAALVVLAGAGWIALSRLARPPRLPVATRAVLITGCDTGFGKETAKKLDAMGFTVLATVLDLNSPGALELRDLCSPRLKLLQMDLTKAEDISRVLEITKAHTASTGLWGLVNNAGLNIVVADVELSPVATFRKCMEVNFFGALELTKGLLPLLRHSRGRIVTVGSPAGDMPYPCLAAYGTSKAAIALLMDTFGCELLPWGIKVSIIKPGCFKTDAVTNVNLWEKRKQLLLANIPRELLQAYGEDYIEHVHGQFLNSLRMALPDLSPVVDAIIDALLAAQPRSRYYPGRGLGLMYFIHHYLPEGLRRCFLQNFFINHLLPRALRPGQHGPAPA

[11] = target: T2, 11-beta-hydroxysteroid dehydrogenase type 2 (Homo sapiens, UniProt P80365); experiment: Inhibition of human 11beta-HSD2 expressed in HEK293 cells assessed as [3H]cortisol production after 60 mins by SPA; assay type: cell-based
T2 sequence (P80365 whole entry): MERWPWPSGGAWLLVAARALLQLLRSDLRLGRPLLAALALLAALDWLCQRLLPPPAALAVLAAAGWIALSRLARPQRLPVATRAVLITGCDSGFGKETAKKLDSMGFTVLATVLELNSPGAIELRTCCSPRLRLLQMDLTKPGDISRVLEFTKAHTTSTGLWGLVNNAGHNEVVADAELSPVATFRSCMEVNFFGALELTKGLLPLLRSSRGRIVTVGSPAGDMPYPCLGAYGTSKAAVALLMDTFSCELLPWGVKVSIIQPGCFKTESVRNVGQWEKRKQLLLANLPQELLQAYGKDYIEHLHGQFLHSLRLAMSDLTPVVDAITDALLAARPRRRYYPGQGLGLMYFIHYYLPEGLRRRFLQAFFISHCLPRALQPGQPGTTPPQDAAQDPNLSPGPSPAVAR

[12] = test system: Mus musculus; experiment: Antidiabetic activity in ob/ob mouse type 2 diabetes model assessed as reduction in fasting blood glucose level at 50 mg/kg, ip once daily for 5 days measured on day 15; assay type: functional; set-up: scale not given: the % may be the effect or the level left; settings: route intraperitoneal
[13] = test system: Mus musculus; experiment: Antidiabetic activity in ob/ob mouse type 2 diabetes model assessed as reduction in fasting blood glucose level at 50 mg/kg, ip once daily for 5 days measured on day 20; assay type: functional; set-up: scale not given: the % may be the effect or the level left; settings: route intraperitoneal
[14] = test system: Mus musculus; experiment: Antidiabetic activity in ob/ob mouse type 2 diabetes model assessed as reduction in blood glucose level at 50 mg/kg, ip once daily for 5 days measured on day 10; assay type: functional; set-up: scale not given: the % may be the effect or the level left; settings: route intraperitoneal
[15] = test system: Mus musculus; experiment: Toxicity in ob/ob mouse type 2 diabetes model assessed as effect on body weight at 50 mg/kg, ip once daily for 20 days measured every 5 days for 20 days; assay type: organism-based; set-up: dose 50 mg/kg, route intraperitoneal; settings: in vivo, 480 h
[16] = test system: Mus musculus; experiment: Antidiabetic activity in ob/ob mouse type 2 diabetes model assessed as reduction in nonfasting blood glucose level at 50 mg/kg, ip once daily for 20 days; assay type: functional; set-up: scale not given: the % may be the effect or the level left; settings: route intraperitoneal
[17] = test system: HEK293; experiment: Selectivity ratio of IC50 for human 11beta-HSD2 expressed in HEK293 cells to IC50 for human 11beta-HSD1 expressed in HEK293 cells; assay type: cell-based
[18] = test system: Mus musculus; experiment: Antidiabetic activity in ob/ob mouse type 2 diabetes model assessed as reduction in nonfasting blood glucose level at 50 mg/kg, ip once daily for 5 days; assay type: functional; set-up: scale not given: the % may be the effect or the level left; settings: route intraperitoneal
[19] = test system: Mus musculus; experiment: Antidiabetic activity in ob/ob mouse type 2 diabetes model assessed as reduction in blood glucose level at 50 mg/kg, ip once daily for 5 days measured on day 20; assay type: functional; set-up: scale not given: the % may be the effect or the level left; settings: route intraperitoneal
[20] = AUC in Sprague-Dawley rat at 5 mg/kg, po; assay type: ADME, organism-based; set-up: dose 5 mg/kg, route oral; settings: plasma
[21] = test system: Mus musculus; experiment: Antidiabetic activity in ob/ob mouse type 2 diabetes model assessed as reduction in blood glucose level at 50 mg/kg, ip once daily for 5 days measured on day 15; assay type: functional; set-up: scale not given: the % may be the effect or the level left; settings: route intraperitoneal
[22] = test system: Mus musculus; experiment: Toxicity in ob/ob mouse type 2 diabetes model assessed as effect on food intake at 50 mg/kg, ip once daily for 20 days measured every 4 days for 20 days; assay type: organism-based; set-up: dose 50 mg/kg, route intraperitoneal; settings: in vivo, 480 h
[23] = test system: Mus musculus; experiment: Antidiabetic activity in ob/ob mouse type 2 diabetes model assessed as reduction in fasting blood glucose level at 50 mg/kg, ip once daily for 20 days; assay type: functional; set-up: scale not given: the % may be the effect or the level left; settings: route intraperitoneal
[24] = test system: Mus musculus; experiment: Antidiabetic activity in ob/ob mouse type 2 diabetes model assessed as reduction in fasting blood glucose level at 50 mg/kg, ip once daily for 5 days measured on day 10; assay type: functional; set-up: scale not given: the % may be the effect or the level left; settings: route intraperitoneal

SMILES: O=C(NC12CC3CC(CC(C3)C1)C2)c1ccc(CN2C(=O)Nc3ccc(Cl)cc3S2(=O)=O)cc1
EC50 [1]: 14 nM
EC50 [3]: 47 nM

SMILES: CN(C(=O)c1cccc(CN2C(=O)Nc3ccc(Cl)cc3S2(=O)=O)c1)C1CCCCCC1
EC50 [1]: 401 nM
EC50 [3]: 4 nM

SMILES: O=C(c1ccc(CN2C(=O)Nc3ccc(Cl)cc3S2(=O)=O)cc1)N(C1CCCCCC1)C1CC1
EC50 [1]: 84 nM
EC50 [3]: 55 nM

SMILES: O=C(NC1CCCCCCC1)c1ccc(CN2C(=O)Nc3ccc(Cl)cc3S2(=O)=O)cc1
EC50 [1]: 180 nM
EC50 [3]: 443 nM

SMILES: O=C(NC1CCCCC1)c1ccc(CN2C(=O)Nc3ccc(Cl)cc3S2(=O)=O)cc1
EC50 [1]: 529 nM
EC50 [3]: 686 nM

SMILES: O=C(c1cccc(CN2C(=O)Nc3ccc(Cl)cc3S2(=O)=O)c1)N(C1CCCCCC1)C1CC1
MRT [4]: 4.02 h
AUC(0-inf) [5]: 16.1 ng·h/mL
Tmax [6]: 2.3 h
EC50 [1]: 258 nM
EC50 [3]: 1 nM
AUC(0-t) [7]: 15.5 ng·h/mL
half-life [8]: 2.02 h
Cmax [9]: 3.86 ng/mL

SMILES: O=C(NC1CCCCCC1)c1ccc(CN2C(=O)Nc3ccc(Cl)cc3S2(=O)=O)cc1
EC50 [1]: 145 nM
EC50 [3]: 802 nM

SMILES: O=C(c1ccc(CN2C(=O)Nc3ccc(Cl)cc3S2(=O)=O)cc1)N(C1CCCCC1)C1CC1
EC50 [1]: 185 nM
EC50 [3]: 60 nM

SMILES: O=C(c1cccc(CN2C(=O)Nc3ccc(Cl)cc3S2(=O)=O)c1)N(C1CCCCC1)C1CC1
EC50 [1]: 58 nM
EC50 [3]: 3 nM

SMILES: CC1(C)[C@@H](O[C@H]2O[C@H](C(=O)O)[C@@H](O)[C@H](O)[C@H]2O[C@@H]2O[C@H](C(=O)O)[C@@H](O)[C@H](O)[C@H]2O)CC[C@]2(C)[C@H]3C(=O)C=C4[C@@H]5C[C@@](C)(C(=O)O)CC[C@]5(C)CC[C@@]4(C)[C@]3(C)CC[C@@H]12 [GLYCYRRHIZIN]
EC50 [1]: 8 nM
EC50 [3]: 10 nM

Now from value to compound, other results behind:

EC50 [1]: 17 nM
EC50 [3]: 283 nM
SMILES: O=C(NC1CCCCCC1)N1CCC(CN2C(=O)Nc3ccc(Cl)cc3S2(=O)=O)CC1
Ratio IC50 [2]: 3

EC50 [10]: > 100000 nM
EC50 [1]: 37 nM
EC50 [3]: 121 nM
EC50 [11]: 2200 nM
SMILES: O=C(N1CCC(CN2C(=O)Nc3ccc(Cl)cc3S2(=O)=O)CC1)N(C1CCCCC1)C1CC1
Ratio IC50 [2]: 3

EC50 [1]: 69 nM
EC50 [3]: 4 nM
SMILES: CN(C(=O)c1cccc(CN2C(=O)Nc3ccc(Cl)cc3S2(=O)=O)c1)C1C2CC3CC(C2)CC1C3 (configuration not stated)

EC50 [10]: > 100000 nM
EC50 [1]: 2 nM
EC50 [3]: 158 nM
EC50 [11]: 720 nM
SMILES: CN(C(=O)N1CCC(CN2C(=O)Nc3ccc(Cl)cc3S2(=O)=O)CC1)C1C2CC3CC(C2)CC1C3 (configuration not stated)
Ratio IC50 [2]: 3

MRT [4]: 4.24 h
AUC(0-inf) [5]: 209 ng·h/mL
Tmax [6]: 2 h
EC50 [10]: > 100000 nM
EC50 [1]: 0.41 nM
EC50 [3]: 21 nM
EC50 [11]: 860 nM
AUC [20]: 147 ng·h/mL
AUC(0-t) [7]: 173 ng·h/mL
half-life [8]: 2.3 h
Cmax [9]: 46.8 ng/mL
SMILES: CN(C(=O)N1CCC(CN2C(=O)Nc3ccc(Cl)cc3S2(=O)=O)CC1)C1CCCCCC1
Activity [12]: 39.4%
Activity [13]: 36.1%
Activity [14]: 27.9%
Activity [15]: Non-toxic
Activity [16]: 25.7%
Ratio IC50 [17]: 40
Activity [18]: 25%
Ratio IC50 [2]: 3
Activity [19]: 35.6%
Activity [21]: 34.6%
Activity [22]: Non-toxic
Activity [23]: 31.4%
Activity [24]: 33.3%

EC50 [1]: 55 nM
EC50 [3]: 70 nM
SMILES: CN(C(=O)c1ccc(CN2C(=O)Nc3ccc(Cl)cc3S2(=O)=O)cc1)C12CC3CC(CC(C3)C1)C2

EC50 [1]: 210 nM
EC50 [3]: 90 nM
SMILES: CN(C(=O)c1ccc(CN2C(=O)Nc3ccc(Cl)cc3S2(=O)=O)cc1)C1CCCCCC1

EC50 [1]: 10 nM
EC50 [3]: 517 nM
SMILES: O=C(N1CCC(CN2C(=O)Nc3ccc(Cl)cc3S2(=O)=O)CC1)N(C1CCCCCC1)C1CC1
Ratio IC50 [2]: 3
